Data: paper PMC7536072, “Molecular and functional characterization of somatostatin-type signalling in a deuterostome invertebrate” (Open Biology, 2020)
Entries after “also recorded” stand apart in the source; their conditions may differ. Bridges are numbered along the chain shown (N, C = ends). Where no end group is shown, it is not given here.

Experiments:
ArSSR3 = assay: GFP-aequorin luminescence receptor activation assay, CHO-K1 cells, ArSSR3 + Gα16; format: cell-based, Asterias rubens
[1] = system: cardiac stomach of A. rubens; assay: in vivo cardiac stomach eversion after injection into the perivisceral coelom; set-up: species or system Asterias rubens; conditions: n = 10
Experimental: When starfish (A. rubens) feed, the cardiac stomach is relaxed and everted out of the mouth over the digestible soft tissues of prey (e.g. mussels). […] Therefore, because ArSS2 causes relaxation of cardiac stomach preparations in vitro, we investigated if ArSS2 also triggers cardiac stomach eversion when injected in vivo. Firstly, 15 medium-sized starfish were starved for one week to normalize their physiological status. A Hamilton […] 50 μl syringe (Sigma-Aldrich; Gillingham, UK) was used to inject 10 μl 1 mM ArSS2, or 10 μl 1 mM asterotocin (positive control) or 10 μl water (negative control) into the […] coelom of starfish. ArSS2 was tested on five individuals firstly and then the next day, asterotocin was tested on the same batch of five individuals. For another five individuals, asterotocin was tested first and then ArSS2 was tested on the following day. The remaining five individuals were injected with water as a control. Thus, both ArSS2 and asterotocin were tested on ten starfish. For each starfish, the test agent was injected via two sites in the dorsal body wall of the arms proximal to the junctions with the central disc region. Care was taken to inject test agents into the […] coelom and not into the cardiac stomach.

[2] = system: CHO-K1 cells transfected with an empty pcDNA3.1(+) vector; assay: luminescence control assay, CHO-K1 cells transfected with empty vector; format: cell-based, Chinese hamster; conditions: 10^-12 to 10^-5 M (figure S12), 0.1 % Triton X-100 = 100%
Experimental: In order to characterize the candidate SS-type receptors, a G-protein-dependent receptor activation assay was employed. Chinese hamster ovary (CHO)-K1 cells stably overexpressing the calcium-sensitive bioluminescent reporter GFP-aequorin fusion protein (G5A) were used as a heterologous expression system. Plasmids containing A. rubens SS-type receptor cDNAs were co-transfected with the promiscuous human Gα16, which is widely used for receptor deorphanization assays. […] After 3 h incubation, a fixed volume of cells was injected sequentially into each well containing different concentrations of peptides using a FLUOstar Omega Plate Reader (BMG LABTECH, Ortenberg, Germany). Luminescence values were recorded over a 35 s period after injection. The total luminescence of each well over the 35 s period was calculated and normalized to the maximum value obtained in each experiment (100% activation) and to the value obtained with the vehicle media (0% activation). […] EC50 values were calculated from dose–response curves using Prism 6. The luminescence responses triggered by 10^−5 M ArSS1, 10^−5 M ArSS2 and vehicle media were analysed by one-way ANOVA using Bonferroni's multiple comparisons post hoc test in Prism 6. […]

[3] = 10 µl 10^−3 M into perivisceral coelom

Chain of ArSSR3 (as listed by the source): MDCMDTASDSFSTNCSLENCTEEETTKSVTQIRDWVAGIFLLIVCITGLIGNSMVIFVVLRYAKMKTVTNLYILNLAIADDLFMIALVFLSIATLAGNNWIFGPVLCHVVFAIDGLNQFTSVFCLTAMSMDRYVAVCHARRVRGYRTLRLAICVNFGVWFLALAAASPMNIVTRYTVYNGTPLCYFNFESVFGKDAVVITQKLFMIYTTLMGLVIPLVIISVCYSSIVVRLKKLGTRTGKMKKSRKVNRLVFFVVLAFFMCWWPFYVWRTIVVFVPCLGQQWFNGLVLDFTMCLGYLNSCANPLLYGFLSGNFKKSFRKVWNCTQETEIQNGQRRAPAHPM

RAKNARCMADFWKGRGLVDC (disulfide 7-20 (inferred)) [ArSS2]
EC50 (ArSSR3; ArSSR3 + Gα16 in CHO-K1 cells expressing GFP-aequorin (G5A), peptide 10^−21 to 10^−4 M, luminescence over 35 s, mean of at least three independent experiments, three repeats each, read-out: half-maximal response concentration (EC50)): 1.4 nM | mean total luminescence response relative to background (ArSSR3; ArSSR3, 10^−5 M, background detected with assay media or with ArSS1): 46 575 times the background luminescence | luminescence compared with control (ArSSR3; ArSSR3, 10^−5 M, vs BSA media (control) and, for ArSS2, vs ArSS1, one-way ANOVA, Bonferroni): significantly higher than the luminescence in cells exposed to ArSS1 or BSA media (control) | triggering of luminescence (ArSSR3; ArSSR3, 10^−21 to 10^−4 M): caused dose-dependent luminescence | mean maximal eversion, area of everted cardiac stomach ([1]; 10 µl 10^−3 M into perivisceral coelom, 10 min recording): approximately 10 % of the area of the central disc region | incidence of cardiac stomach eversion [1, 3]: all of the animals | time of mean maximal eversion after injection [1, 3]: approximately 4 min | magnitude of cardiac stomach eversion compared with asterotocin ([1]; 10 µl 10^−3 M): much less than that induced by asterotocin | luminescence response in cells with empty vector [2]: do not trigger luminscence; also recorded: Neither ArSS1 nor ArSS2 elicited responses
